Measured values reported in publication PMC10138714, “Evaluation of Some Safety Parameters of Dual Histamine H3 and Sigma-2 Receptor Ligands with Anti-Obesity Potential” (International Journal of Molecular Sciences, 2023).

How the values were obtained:
σ1R = target: σ1R; parameters: method as in PMID 34908391; details: cited from earlier work; for σ1/σ2: ratio of Ki values
σ2R = target: σ2R; parameters: method as in PMID 34908391; details: cited from earlier work
[1] = target: T1, human ERG potassium channel (Kv11.1) (Homo sapiens, UniProt Q12809); assay: Whole-cell automated patch clamp (QPatch16X), inhibition of hERG currents; assay type: cell-based; details: for IC50: CHO cells stably expressing human ERG, whole-cell, mean of three experiments, read-out: Mean IC50 ± SEM, inhibition of hERG currents; for Inhibition of hERG compared with verapamil: relative to reference compound verapamil
T1 construct: expressed in transfected cells
T1 sequence (Q12809 whole entry): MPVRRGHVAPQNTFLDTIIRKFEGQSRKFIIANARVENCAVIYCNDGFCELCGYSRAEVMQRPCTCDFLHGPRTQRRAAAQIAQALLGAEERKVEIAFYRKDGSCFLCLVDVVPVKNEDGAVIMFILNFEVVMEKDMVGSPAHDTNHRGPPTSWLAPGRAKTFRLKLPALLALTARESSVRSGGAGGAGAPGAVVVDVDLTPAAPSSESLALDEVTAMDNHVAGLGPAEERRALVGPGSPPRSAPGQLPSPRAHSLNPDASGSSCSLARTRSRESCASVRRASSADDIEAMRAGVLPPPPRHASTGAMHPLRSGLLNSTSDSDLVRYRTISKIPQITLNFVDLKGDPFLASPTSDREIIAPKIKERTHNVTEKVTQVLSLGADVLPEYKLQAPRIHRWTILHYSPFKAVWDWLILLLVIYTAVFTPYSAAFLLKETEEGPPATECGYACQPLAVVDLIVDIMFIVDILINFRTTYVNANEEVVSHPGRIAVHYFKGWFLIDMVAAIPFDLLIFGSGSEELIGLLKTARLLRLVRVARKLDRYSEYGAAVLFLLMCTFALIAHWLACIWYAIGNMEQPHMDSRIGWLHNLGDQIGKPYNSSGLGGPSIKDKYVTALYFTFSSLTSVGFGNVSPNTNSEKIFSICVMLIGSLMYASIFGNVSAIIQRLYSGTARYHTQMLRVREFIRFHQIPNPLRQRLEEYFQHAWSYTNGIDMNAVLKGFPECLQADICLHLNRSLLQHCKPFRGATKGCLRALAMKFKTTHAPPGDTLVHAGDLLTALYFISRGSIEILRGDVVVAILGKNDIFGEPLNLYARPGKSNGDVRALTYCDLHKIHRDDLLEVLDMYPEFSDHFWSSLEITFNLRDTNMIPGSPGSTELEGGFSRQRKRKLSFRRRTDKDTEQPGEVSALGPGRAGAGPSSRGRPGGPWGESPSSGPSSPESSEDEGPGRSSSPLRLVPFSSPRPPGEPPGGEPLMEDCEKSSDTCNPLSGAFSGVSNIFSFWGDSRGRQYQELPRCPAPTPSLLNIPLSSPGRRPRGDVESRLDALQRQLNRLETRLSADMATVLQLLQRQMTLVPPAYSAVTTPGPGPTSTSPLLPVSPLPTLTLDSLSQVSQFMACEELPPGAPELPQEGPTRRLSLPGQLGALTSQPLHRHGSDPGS
Description: Electrophysiology experiments were performed on a QPatch16X automatic patch clamp platform (Sophion Bioscience, Ballerup, Denmark). Chinese hamster ovary (CHO) cells stably expressing the human ERG potassium channel (Kv11.1) were cultured using standard procedures. On the day of the experiment, cells were collected from the culture flask using TrypLE Express solution (Life Technologies, Thermo Fisher Scientific, Carlsbad, California, United States) and resuspended in EX-CELL ACF CHO serum-free medium (Merck KGaA, Sigma-Aldrich, Darmstadt, Germany), supplemented with 25 mM HEPES, 100 U/mL penicillin/streptomycin, and 0.04 mg/mL soybean trypsin inhibitor (all components from Sigma Aldrich).
The cells were placed in the lidless microtube and located onboard the automated electrophysiology instrument, where they were automatically relocated to a built-in centrifuge.
Cells were transferred to pipetting wells of single-use 16-channel planar patch chip plates (QPlate 16X, Sophion Bioscience, Ballerup, Denmark) and gigaseals were formed upon application of a combined suction/voltage protocol in a standard protocol supplied by Sophion Bioscience for CHO cells. Once the whole-cell mode was obtained, the cells were kept in a holding potential of -90 mV between the programmed stimulation protocols.
Whole-cell potassium currents were measured in response to repeatedly executed voltage protocols constituted of the following steps: brief clamping to −50 mV (200 ms), subsequent depolarization to 20 mV for 4000 ms, and final repolarization to −50 mV when the outward tail current was measured for 4000 ms.
The average current peak values determined in the presence of particular concentrations of the compound tested were subjected to a sigmoidal dose–response curve fitting, where the bottom plateau parameter was constrained to 0. The IC50 values were then calculated from the obtained sigmoidal dose–response curves. Data were analyzed using QPatch Assay Software (v5.0, Sophion Bioscience, Ballerup, Denmark) and represent the mean of three experiments carried out on distinct cells.

mice [2] = assay: Locomotor activity in mice (activity cages, photobeam breaks); assay type: in vivo, male Albino Swiss (CD-1) mice; details: single i.p. 30 mg/kg b.w., vs vehicle group
Description: (§1) Blood pressure measurement and ECG were performed on male Wistar rats weighing 200–220 g (six months old). Locomotor activity and chimney tests were performed on adult male Albino Swiss (CD-1) mice weighing 18–22 g ([…]). The animals were obtained from an accredited animal house at the Faculty of Pharmacy, Jagiellonian University Medical College, Krakow, Poland. The experimental groups consisted of 6–8 animals. The animals were housed in constant temperature (22–24 °C) and humidity (40–60%) facilities, exposed to 12:12 h light/dark cycles, and were maintained on a standard pellet diet with tap water available ad libitum. Rats and mice were housed in pairs or 8 animals per home cage, respectively.
Locomotor activity was individually recorded for each animal using specifically designed activity cages made of clear Perspex (40 cm × 40 cm × 31 cm, Activity Cage 7441, Ugo Basile, Italy). The cages were supplied with I.R. horizontal beam emitters connected to a counter that records the light-beam interruptions. The compounds suspensions were administered as i.p. injections 30 min before testing. Control animals received injections of vehicles. Each mouse was placed in a cage for a 30 min habituation period. After that time, the number of breaks in the photobeams was measured for 5 min, which is the same time as the observation period used in other tests.

rats = assay: Heart rate and ECG intervals in rats; assay type: in vivo, male Wistar rats; details: 10 mg/kg i.p.
Description: as §1
In vivo electrocardiographic measurements were performed using an ASPEL ASCARD B5 apparatus, standard lead II, and a paper speed of 50 mm/s. The study was carried out after a single administration of the test compounds (10 mg/kg i.p.). […] The following parameters were then calculated and analyzed: duration of PQ, QT, QRS, RR intervals, and heart rate.

normotensive rats = assay: Blood pressure in anesthetized normotensive rats (carotid artery cannulation); assay type: in vivo, male Wistar rats
Description: as §1
Rats were anesthetized with thiopental (70 mg/kg) via i.p. injection. The left carotid artery was cannulated with polyethylene tubing filled with a heparin solution in saline to facilitate pressure measurements using a PowerLab Apparatus (ADInstruments, Sydney, Australia). After a 20 min stabilization period, the test compounds were administered i.p. at a dose of 10 mg/kg b.w. in a constant volume of 1 mL/kg b.w. Blood pressure was recorded immediately before administration and 5, 10, 15, 20, 30, 40, 50, and 60 min after the administration of the test compound [47].

[3] = tested on: rats fed a palatable diet; assay: Plasma AlaT, AspaT, gGT and ALP activity after repeated administration in rats fed a palatable diet; assay type: in vivo; details: 10 mg/kg b.w. i.p. repeated; for Plasma AspaT activity: relative to both control groups (standard or palatable feed); for Plasma gGT activity: vs palatable feed-fed control group; for Plasma AlaT activity: vs vehicle control fed palatable feed
Description: Standard diet ( 8% fats, 67% carbohydrates, and 25% proteins) contained 100 g feed—280 kcal. Rats fed a palatable diet had access to a diet consisting of milk chocolate with nuts, cheese, salted peanuts, and 7% condensed milk and simultaneously to standard feed (Labofeed B, Morawski Manufacturer Feed, Kcynia, Poland) for 4 weeks. The feeding was not in any way forced, and rats decided themselves when, what, and how much to eat. A palatable diet contained 100 g of peanuts—612 kcal; 100 mL of condensed milk—131 kcal; 100 g of milk chocolate—529 kcal; and 100 g of cheese—325 kcal.
The study evaluating the activities of alanine aminotransferase (AlaT), aspartate aminotransferase (AspaT), gamma-glutamyl transpeptidases (gGT), and alkaline phosphatase (ALP) was carried out after completing the excessive eating model experiments described in our previous work. Compounds were administered for twenty-eight days at a dose of 10 mg/kg b.w./day. On the 31st day of the experiment, 20 min after i.p. administration of heparin (5000 units/rat) and thiopental (70 mg/kg b.w.), blood was collected from the left carotid artery and then centrifuged at 600× g (15 min, 4 °C) in order to obtain the plasma. To determine the activities of AlaT, AapaT, gGT, and ALP in the plasma samples, a standard enzymatic spectrophotometric test (Biomaxima S.A., Lublin, Poland) was used.

H3R = target: H3R; parameters: method as in PMID 34908391; details: cited from earlier work; for H3/σ1 / H3/σ2: ratio of Ki values
mice [4] = assay: Motor coordination in the chimney test; assay type: in vivo, male Albino Swiss (CD-1) mice; details: for % of Mice Impaired: chimney test, 30 min after injection, n = 8
Description: as §1
The effect of tested compounds on motor impairment were quantified with the chimney test of Boissier et al. (1960). The mice were trained before the test, and only the animals able to get out of the chimney within 1 min were used at the experimental stage. The selected mice were placed in a 25 cm-long and 2.5 cm in diameter […] tube, which was reversed so that the mice could leave it only by climbing up backward until they reached the other end. The test was performed 30 min after injection (i.p.) of the examined compounds. Motor impairment was indicated by the inability of the animals to climb up backwards in the transparent tube within 60 s.

[5] = vs control group fed standard feed
[6] = single i.p. 10 mg/kg b.w., 30–60 min after administration

## c1ccc(-c2ccc(OCCCN3CCN(c4ccncc4)CC3)cc2)cc1 [KSK-61]
σ1R
  Ki: 638 nM
  σ1/σ2: 5.90
σ2R
  Ki: 108 nM
[1]
  IC50: 2660 ± 217 nM
  Inhibition of hERG compared with verapamil: about five times weaker
Mice [2]
  Locomotor activity: significant decrease
rats; time 0 min
  Heart rate: 373.2 ± 20.3 beats/min
  PQ: 53 ± 1.6 ms
  QRS: 20.8 ± 0.8 ms
  QT: 56.3 ± 4.1 ms
rats; time 15 min
  Heart rate: 369.5 ± 9.5 beats/min
  PQ: 52.8 ± 1.5 ms
  QRS: 21.5 ± 0.5 ms
  QT: 56.3 ± 2.2 ms
rats; time 30 min
  Heart rate: 380.2 ± 30.5 beats/min
  PQ: 54.5 ± 3.5 ms
  QRS: 21.8 ± 1.1 ms
  QT: 58.8 ± 2.2 ms
rats; time 45 min
  Heart rate: 349.5 ± 21.3 beats/min
  PQ: 53.3 ± 1.8 ms
  QRS: 21.8 ± 0.8 ms
  QT: 57.5 ± 4.3 ms
rats; time 60 min
  Heart rate: 360.4 ± 20.3 beats/min
  PQ: 53 ± 1.6 ms
  QRS: 21.8 ± 0.4 ms
  QT: 55 ± 5.0 ms
Normotensive rats; single i.p. 10 mg/kg b.w., vs vehicle (1% Tween 80)
  Effect on blood pressure: did not affect blood pressure
[3]
  Plasma AspaT activity: higher AspaT activity
  Plasma gGT activity: statistically lower gGT activity
[3]; [5]
  Plasma ALP activity: greater ALP activity
H3R
  Ki: 21.1 nM
  H3/σ1: 0.03
  H3/σ2: 0.20
Mice [4]; 10 mg/kg i.p.
  % of Mice Impaired: 25%
Mice [4]; 20 mg/kg i.p.
  % of Mice Impaired: 12.5%
Mice [4]; 30 mg/kg i.p.
  % of Mice Impaired: 25%
Mice [4]; mice, 10-30 mg/kg i.p., Fisher exact probability test
  Effect on motor coordination (chimney test): decreases the ability to exit the chimney at all doses tested in one or two mice per group

## CC(=O)c1ccc(OCCCCCCCCN2CCN(c3ccncc3)CC2)cc1 [KSK-73]
σ1R
  Ki: 408 nM
  σ1/σ2: 6.84
σ2R
  Ki: 59.7 nM
[1]
  IC50: 2070 ± 402 nM
  Inhibition of hERG compared with verapamil: four times weaker
Mice [2]
  Locomotor activity: significant decrease
rats; time 0 min
  Heart rate: 370.0 ± 23.9 beats/min
  PQ: 56.3 ± 2.2 ms
  QRS: 22.7 ± 5.4 ms
  QT: 61.3 ± 2.2 ms
rats; time 15 min
  Heart rate: 375.5 ± 23.9 beats/min
  PQ: 51.3 ± 2.2 ms
  QRS: 22.7 ± 5.4 ms
  QT: 63.8 ± 4.1 ms
rats; time 30 min
  Heart rate: 377.1 ± 27.3 beats/min
  PQ: 51.3 ± 2.2 ms
  QRS: 22.7 ± 5.4 ms
  QT: 60.0 ± 7.1 ms
rats; time 45 min
  Heart rate: 395.8 ± 33.3 beats/min
  PQ: 52.5 ± 2.5 ms
  QRS: 20.0 ± 0.0 ms
  QT: 58.8 ± 2.2 ms
rats; time 60 min
  Heart rate: 377.0 ± 26.4 beats/min
  PQ: 53.8 ± 2.2 ms
  QRS: 20.0 ± 0.0 ms
  QT: 63.8 ± 6.5 ms
Normotensive rats; [6]
  Decrease of diastolic blood pressure: 10–14 mmHg
  Decrease of systolic blood pressure: approx. 12 mmHg
[3]
  Plasma gGT activity: statistically lower gGT activity
  Plasma AlaT activity: lower
[3]; vs vehicle group with palatable feed
  Plasma ALP activity: lower plasma ALP activity
H3R
  Ki: 40.5 nM
  H3/σ1: 0.1
  H3/σ2: 0.68
Mice [4]; 10 mg/kg i.p.
  % of Mice Impaired: 12.5%
Mice [4]; 20 mg/kg i.p.
  % of Mice Impaired: 0%
Mice [4]; 30 mg/kg i.p.
  % of Mice Impaired: 0%

## O=C(c1ccccc1)c1ccc(OCCCN2CCN(c3ccncc3)CC2)cc1 [KSK-63]
σ1R
  Ki: 726 nM
  σ1/σ2: 24.83
σ2R
  Ki: 29.2 nM
[1]
  IC50: 570 ± 50 nM
  Inhibition of hERG compared with verapamil: close to the reference compound
Mice [2]
  Locomotor activity: significant decrease
rats; time 0 min
  Heart rate: 393.8 ± 34.8 beats/min
  PQ: 57.5 ± 2.5 ms
  QRS: 20.0 ± 0.0 ms
  QT: 63.3 ± 5.1 ms
rats; time 15 min
  Heart rate: 362.8 ± 38.0 beats/min
  PQ: 55.0 ± 5.0 ms
  QRS: 20.0 ± 0.0 ms
  QT: 64.4 ± 2.6 ms
rats; time 30 min
  Heart rate: 365.2 ± 34.8 beats/min
  PQ: 58.75 ± 1.3 ms
  QRS: 20.0 ± 0.0 ms
  QT: 65.3 ± 4.7 ms
rats; time 45 min
  Heart rate: 344.3 ± 30.8 beats/min
  PQ: 55.0 ± 5.0 ms
  QRS: 20 ± 0.0 ms
  QT: 62.1 ± 1.6 ms
rats; time 60 min
  Heart rate: 344.3 ± 30.8 beats/min
  PQ: 62.5 ± 2.1 ms
  QRS: 20.0 ± 0.0 ms
  QT: 65.2 ± 3.6 ms
Normotensive rats; single i.p. 10 mg/kg b.w., 5, 10 and 20 min after administration
  Increase of systolic blood pressure: 16–22 mmHg
[3]
  Plasma AspaT activity: higher AspaT activity
  Plasma gGT activity: statistically lower gGT activity
  Plasma AlaT activity: lower
[3]; [5]
  Plasma ALP activity: greater ALP activity
H3R
  H3/σ1: 0.004
  H3/σ2: 0.11
Mice [4]; 10 mg/kg i.p.
  % of Mice Impaired: 0%
Mice [4]; 20 mg/kg i.p.
  % of Mice Impaired: 0%
Mice [4]; 30 mg/kg i.p.
  % of Mice Impaired: 0%
